Here are results for five substances from patent US9833497B2, “Human originated EGF domain proteins and use of the same” (CHENGDU SOURCEBIO LIMITED-LIABILITY COMPANY, priority 2013, dated 2017).

What all share (type): cell-based
One assay deals with E. coli DH5α. The assay can be described thus: Antibacterial activity: MIC and growth curve against E. coli DH5α in 96-well plate. The conditions noted are these: minimal inhibitory concentration against E. coli DH5α; 96-well plate, 5×10^5 CFU/mL, 37° C., judged after 8 h. The essentials: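 Log-phase DH5α (OD600 about 0.5, 37° C, 185 rpm in LB) was pelleted, resuspended in fresh LB and seeded at 5×10^5 CFU/mL with recombinant protein at 50, 25 and 12.5 μg/mL (two-fold series), in triplicate. Plates were shaken at 175 rpm, 37° C, and OD600 was read every 30 min. MIC was the lowest concentration with no growth.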

Another assay concerns E. coli BL21. Put plainly: MIC against Gram-negative bacteria: E. coli BL21. The note with it: 5×10^5 CFU/mL. In short, it runs like this: (§1)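 MIC = lowest concentration of recombinant protein showing no growth. Test proteins: purified human-derived EGF domain proteins, two-fold dilution series, three wells per concentration; inoculum 5×10^5 CFU/mL in LB; incubation 37° C with shaking at 175 rpm.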

A further assay concerns Pseudomonas aeruginosa. Put plainly: MIC against Gram-negative bacteria: Pseudomonas aeruginosa. The conditions noted are these: 5×10^5 CFU/mL. In short, it runs like this:
as §1

In another assay the test system is Klebsiella pneumonia. The assay can be described thus: MIC against Gram-negative bacteria: Klebsiella pneumonia. The note with it: 5×10^5 CFU/mL. The essentials: as §1
The subject of the next assay is Enterobacter cloacae. Put plainly: MIC against Gram-negative bacteria: Enterobacter cloacae. The note with it: 5×10^5 CFU/mL. In short, it runs like this: as §1
Another assay has as its system Aeromonas hydrophila. Put plainly: MIC against Gram-negative bacteria: Aeromonas hydrophila. The conditions noted are these: 5×10^5 CFU/mL. In short, it runs like this: as §1
The test system of the next assay is Citrobacter diversus. The assay can be described thus: MIC against Gram-negative bacteria: Citrobacter diversus. The conditions noted are these: 5×10^5 CFU/mL. In short, it runs like this:
as §1

The next assay relates to Moraxella catarrhalis. The assay can be described thus: MIC against Gram-negative bacteria: Moraxella catarrhalis. The conditions noted are these: 5×10^5 CFU/mL. The essentials:
as §1

For another assay, the system named is Proteus mirabilis. The assay can be described thus: MIC against Gram-negative bacteria: Proteus mirabilis. The conditions noted are these: 5×10^5 CFU/mL. The essentials: as §1
The subject of the next assay is Proteus vulgaris. Put plainly: MIC against Gram-negative bacteria: Proteus vulgaris. The conditions noted are these: 5×10^5 CFU/mL. The essentials: as §1
Another assay concerns Serratia marcescens. Put plainly: MIC against Gram-negative bacteria: Serratia marcescens. The conditions noted are these: 5×10^5 CFU/mL. The essentials:
as §1

The mark [1] stands for this setting: P. aeruginosa, 10 h cultivation at 37° C.
Setting [2] is: K. pneumonia, 10 h cultivation at 37° C.
Where [3] appears, read: E. cloacae, 10 h cultivation at 37° C.
The mark [4] stands for this setting: A. hydrophila, 10 h cultivation at 37° C.
[5] abbreviates: C. diversus, 10 h cultivation at 37° C.
The mark [6] stands for this setting: M. catarrhalis, 10 h cultivation at 37° C.
[7] abbreviates: P. mirabilis, 10 h cultivation at 37° C.
The mark [8] stands for this setting: P. vulgaris, 10 h cultivation at 37° C.
[9] abbreviates: S. marcescens, 10 h cultivation at 37° C.
The mark [10] stands for this setting: 10 h cultivation at 37° C., two-fold serial dilution.

In turn, “PRT161 (KVDPCASSPCQNNGTCYVDGVHFTCNCSPGFTGPTCA; listed as Homo sapiens)” came in with a minimal inhibitory concentration (MIC) in the assay with E. coli DH5α of 12.5 µg/mL. In addition, the “MIC (μg/mL) E. coli BL21” value in the assay with E. coli BL21 (10 h cultivation at 37° C.) is 12.5 µg/mL. For the same substance, in the assay with Pseudomonas aeruginosa (setting [1]), the “MIC (μg/mL) P. aeruginosa” value was 25 µg/mL. In addition, the “MIC (μg/mL) K. pneumonia” value in the assay on Klebsiella pneumonia (setting [2]) was 12.5 µg/mL. The “MIC (μg/mL) E. cloacae” value against Enterobacter cloacae (setting [3]) was found to be 25 µg/mL. Further, in the assay on Aeromonas hydrophila (setting [4]), the “MIC (μg/mL) A. hydrophila” value was 50 µg/mL. Besides, the “MIC (μg/mL) C. diversus” value against Citrobacter diversus (setting [5]) worked out at 25 µg/mL. For the same substance, the “MIC (μg/mL) M. catarrhalis” value with Moraxella catarrhalis (setting [6]) worked out at 12.5 µg/mL. In addition, in the assay on Proteus mirabilis (setting [7]), the “MIC (μg/mL) P. mirabilis” value amounted to 25 µg/mL. The “MIC (μg/mL) P. vulgaris” value in the assay with Proteus vulgaris (setting [8]) worked out at 50 µg/mL. Moreover, the “MIC (μg/mL) S. marcescens” value against Serratia marcescens (setting [9]) came out at 25 µg/mL.
Substance “PRT497 (CACPHSPPASFSPTCVLEGDHDFRCDACLLGYEGKHCERCSSSYYGNPQTPGGSCQK; listed as Homo sapiens)” displayed an MIC in the assay on E. coli DH5α of 12.5 µg/mL. Besides, the “MIC against E. coli BL21” value against E. coli BL21 (96-well plate, 37° C., 10 h) came to 25 µg/mL. In addition, the “MIC against P. aeruginosa” value in the assay with Pseudomonas aeruginosa (96-well plate, 37° C., 10 h) amounted to 50 µg/mL. Further, the “MIC against K. pneumonia” value against Klebsiella pneumonia (96-well plate, 37° C., 10 h) is 12.5 µg/mL. In addition, in the assay on Enterobacter cloacae (96-well plate, 37° C., 10 h), the “MIC against E. cloacae” value was found to be 25 µg/mL. In addition, the “MIC against A. hydrophila” value in the assay with Aeromonas hydrophila (96-well plate, 37° C., 10 h) was 50 µg/mL. For the same substance, the “MIC against C. diversus” value in the assay on Citrobacter diversus (96-well plate, 37° C., 10 h) turned out to be 25 µg/mL. Also, the “MIC against M. catarrhalis” value in the assay with Moraxella catarrhalis (96-well plate, 37° C., 10 h) is 12.5 µg/mL. Besides, the “MIC against P. mirabilis” value in the assay on Proteus mirabilis (96-well plate, 37° C., 10 h) stood at 50 µg/mL. Also, the “MIC against P. vulgaris” value in the assay with Proteus vulgaris (96-well plate, 37° C., 10 h) was determined as 12.5 µg/mL. In the assay on Serratia marcescens (96-well plate, 37° C., 10 h), the “MIC against S. marcescens” value was determined as 50 µg/mL.
“PRT766 (GKDQCAEGGHGCQHQCVNAWAMFHCTCNPGYKLAADNKSCL; listed as Homo sapiens)” yielded an MIC against E. coli DH5α of 25 µg/mL. Besides, the “MIC (μg/mL) E. coli BL21” value against E. coli BL21 (10 h cultivation at 37° C.) was determined as 50 µg/mL. Besides, the “MIC (μg/mL) P. aeruginosa” value against Pseudomonas aeruginosa (setting [1]) was determined as 25 µg/mL. The “MIC (μg/mL) K. pneumonia” value against Klebsiella pneumonia (setting [2]) was determined as 12.5 µg/mL. Moreover, the “MIC (μg/mL) E. cloacae” value in the assay on Enterobacter cloacae (setting [3]) came out at 50 µg/mL. The “MIC (μg/mL) A. hydrophila” value in the assay with Aeromonas hydrophila (setting [4]) came out at 25 µg/mL. Also, the “MIC (μg/mL) C. diversus” value against Citrobacter diversus (setting [5]) amounted to 12.5 µg/mL. Besides, the “MIC (μg/mL) M. catarrhalis” value against Moraxella catarrhalis (setting [6]) is 25 µg/mL. Besides, the “MIC (μg/mL) P. mirabilis” value against Proteus mirabilis (setting [7]) worked out at 50 µg/mL. Further, the “MIC (μg/mL) P. vulgaris” value in the assay on Proteus vulgaris (setting [8]) is 25 µg/mL. Also, in the assay with Serratia marcescens (setting [9]), the “MIC (μg/mL) S. marcescens” value came to 12.5 µg/mL.
Substance “PRT1185 (REFQCDAYTCSNGGTCYDSGDTFRCACPPGWKGSTCA; listed as Homo sapiens)” yielded a minimal inhibitory concentration (MIC) in the assay on E. coli DH5α of 50 µg/mL. Besides, the “MIC E. coli BL21” value against E. coli BL21 (setting [10]) is 12.5 µg/mL. Besides, in the assay on Pseudomonas aeruginosa (setting [10]), the “MIC P. aeruginosa” value turned out to be 25 µg/mL. Further, in the assay on Klebsiella pneumonia (setting [10]), the “MIC K. pneumonia” value stood at 50 µg/mL. Besides, the “MIC E. cloacae” value against Enterobacter cloacae (setting [10]) was found to be 12.5 µg/mL. Besides, the “MIC A. hydrophila” value in the assay with Aeromonas hydrophila (setting [10]) was determined as 50 µg/mL. For the same substance, the “MIC C. diversus” value with Citrobacter diversus (setting [10]) came to 12.5 µg/mL. Also, in the assay with Moraxella catarrhalis (setting [10]), the “MIC M. catarrhalis” value turned out to be 50 µg/mL. Further, the “MIC P. mirabilis” value against Proteus mirabilis (setting [10]) worked out at 12.5 µg/mL. Also, the “MIC P. vulgaris” value with Proteus vulgaris (setting [10]) worked out at 50 µg/mL. Further, the “MIC S. marcescens” value with Serratia marcescens (setting [10]) worked out at 12.5 µg/mL.
Regarding “PRT82 (CDCYPTGSLSRVCDPEDGQCPCKPGVIGRQCDRCDNPFAEVTTNGCEV; listed as Homo sapiens)”, the MIC with E. coli DH5α was found to be 25 µg/mL. The “MIC (μg/mL) E. coli BL21” value against E. coli BL21 (96-well plate, 37° C., 10 h) is 12.5 µg/mL. Also, in the assay with Pseudomonas aeruginosa (Pseudomonas aeruginosa, 96-well plate, 37° C., 10 h), the “MIC (μg/mL) P. aeruginosa” value was determined as 25 µg/mL. For the same substance, in the assay with Klebsiella pneumonia (Klebsiella pneumonia, 96-well plate, 37° C., 10 h), the “MIC (μg/mL) K. pneumonia” value worked out at 50 µg/mL. Moreover, the “MIC (μg/mL) E. cloacae” value in the assay with Enterobacter cloacae (Enterobacter cloacae, 96-well plate, 37° C., 10 h) stood at 25 µg/mL. In addition, the “MIC (μg/mL) A. hydrophila” value against Aeromonas hydrophila (Aeromonas hydrophila, 96-well plate, 37° C., 10 h) is 12.5 µg/mL. Moreover, the “MIC (μg/mL) C. diversus” value in the assay on Citrobacter diversus (Citrobacter diversus, 96-well plate, 37° C., 10 h) came out at 50 µg/mL. Besides, the “MIC (μg/mL) M. catarrhalis” value in the assay on Moraxella catarrhalis (Moraxella catarrhalis, 96-well plate, 37° C., 10 h) is 100 µg/mL. In the assay with Proteus mirabilis (Proteus mirabilis, 96-well plate, 37° C., 10 h), the “MIC (μg/mL) P. mirabilis” value came out at 12.5 µg/mL. Besides, in the assay on Proteus vulgaris (Proteus vulgaris, 96-well plate, 37° C., 10 h), the “MIC (μg/mL) P. vulgaris” value worked out at 12.5 µg/mL. Moreover, in the assay with Serratia marcescens (Serratia marcescens, 96-well plate, 37° C., 10 h), the “MIC (μg/mL) S. marcescens” value came to 12.5 µg/mL.

Usually MIC stands for the least concentration at which growth counts as inhibited. High values mean a need for much substance, low ones inhibition by little substance.
